Reference: article PMC2839369 (Chimia, 2009)

Target: thymidine kinase from Thermotoga maritima (TmTK) (Thermotoga maritima, UniProt Q9WYN2)
Assay: crystal structures and activity
Assay type: binding
Settings: phosphoryl donor site

Chain of thymidine kinase from Thermotoga maritima (TmTK) (Q9WYN2 whole entry): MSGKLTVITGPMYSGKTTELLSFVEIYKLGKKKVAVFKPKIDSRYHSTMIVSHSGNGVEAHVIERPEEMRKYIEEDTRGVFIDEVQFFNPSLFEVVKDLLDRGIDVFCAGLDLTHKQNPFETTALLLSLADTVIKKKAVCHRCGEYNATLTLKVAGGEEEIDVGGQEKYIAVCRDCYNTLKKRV

Nc1ncnc2c1ncn2[C@@H]1O[C@H](COP(=O)(O)OP(=O)(O)OP(=O)(O)O)[C@@H](O)[C@H]1O [ATP]
crystal structures and activity (summary of authors' earlier work): large conformational change in the native homotetramer associated with ATP binding
